Measurements reported in publication PMC4481117 (Molecular Pain, 2015).

Columns and labels:
wild-type HEK293 cells = assay: Adhesion of wild-type HEK293 cells to immobilized peptide; format: cell-based, Human; settings: coated wells, calcein-labeled cells, 30 min at 37 °C
Protocol: Fig. 3 Adhesion of Mac-1-expressing cells to Dyn A and Dyn B. a, Mac-1-expressing and wild-type HEK293 cells were labeled with calcein and 5x10^4 cells were added to the wells coated with different concentrations of the Dyn A. After 30 min at 37 °C, nonadherent cells were removed and fluorescence was measured. The data shown are means of triplicate determinations, and error bars represent S.E. The figure is representative of 8 experiments. b , adhesion of HEK293 cells expressing Mac-1, LFA and the I-less form of Mac-1 to Dyn A and Dyn B immobilized at 10 μM was determined as described in A. c, calcein-labeled Mac-1-HEK293 cells were preincubated without or with 10 μg/ml of anti-αM mAb 44a or 1 μg/ml NIF for 15 minutes. For testing the role of glucosaminoglycans in cell adhesion, dynorphin A-coated wells were preincubated with 100 μl of 10 μg/ml of chondroitin sulfate A, chondroitin sulfate B and heparin. […]
Adhesion assays were performed essentially as described previously. […] Fluorescence was measured in a CytoFluorII fluorescence plate reader (Perceptive Biosystems, Framingham, MA). […] After aspirating the solution, labeled cells were added and cell adhesion was analyzed as above.

[1] = system: Mac-1-deficient macrophages; assay: Transwell migration of Mac-1-deficient peritoneal macrophages to Dyn A; format: cell-based, mouse; settings: 10 μM Dyn A, 90 min at 37 °C, TG-elicited
Protocol: Fig. 6 Migration of Mac-1-expressing cells to Dyn A in a Transwell system. a, Mac-1-expressing HEK 293 cells (100 μl at 3 × 10^6 cell/ml) were added to the upper wells of the transwell chamber and their ability to migrate to different concentrations of Dyn A placed in the lower chamber was analyzed. After 16 hours at 37 °C, migrated cells were fixed, stained, and counted. Data are presented as numbers of migrated cells per field ± S.E. for five random fields per well. The figure is representative of 5 experiments. b, Mac-1-expressing or wild-type HEK 293 cells were added to the upper wells of the transwell chamber and their ability to migrate to 10 μM Dyn A placed in the lower chamber was analyzed as in A. Some Mac-1-HEK293 cells were pretreated with 20 μg/ml of mAbs 44a (anti-αM), IB4 (anti-β2) or OKM1 (non function-blocking anti-αM) or medium alone before addition to the upper wells. ***, medium alone. […] The number of migrated cells was determined as in A. Data are presented as number of migrated cells per field ± S.E. for five random fields per well. […]
(§1) Migration assays with wild-type and Mac-1-expressing HEK293 cells and purified macrophages using Transwell inserts (5 μm pore size) were performed as previously described. […] The photographs were taken using a 20x objective and cells in […] and cells were counted. […]

Mac-1-HEK293 cells = assay: Transwell migration of Mac-1-HEK293 cells to Dyn A; format: cell-based, Human; settings: 16 h at 37 °C
Protocol: Fig. 6 Migration of Mac-1-expressing cells to Dyn A in a Transwell system. a, Mac-1-expressing HEK 293 cells (100 μl at 3 × 10^6 cell/ml) were added to the upper wells of the transwell chamber and their ability to migrate to different concentrations of Dyn A placed in the lower chamber was analyzed. After 16 hours at 37 °C, migrated cells were fixed, stained, and counted. Data are presented as numbers of migrated cells per field ± S.E. for five random fields per well. The figure is representative of 5 experiments. b, Mac-1-expressing or wild-type HEK 293 cells were added to the upper wells of the transwell chamber and their ability to migrate to 10 μM Dyn A placed in the lower chamber was analyzed as in A. Some Mac-1-HEK293 cells were pretreated with 20 μg/ml of mAbs 44a (anti-αM), IB4 (anti-β2) or OKM1 (non function-blocking anti-αM) or medium alone before addition to the upper wells. ***, medium alone. Data are presented as the number of migrated cells per field ± S.E. for five random fields/well from 3 separate experiments. **, p < 0.01. c, migration of TG-elicited macrophages isolated from the peritoneum of wild-type and Mac-1-deficient mice. Macrophages (3x10^5) were placed in the upper chamber and allowed to migrate to Dyn A (10 μM) in the lower chamber for 90 min. The number of migrated cells was determined as in A. Data are presented as number of migrated cells per field ± S.E. for five random fields per well. The figure is representative of 3 experiments
as §1

CC[C@H](C)[C@H](NC(=O)[C@H](CCCNC(=N)N)NC(=O)[C@H](CCCNC(=N)N)NC(=O)[C@H](CC(C)C)NC(=O)[C@H](Cc1ccccc1)NC(=O)CNC(=O)CNC(=O)[C@@H](N)Cc1ccc(O)cc1)C(=O)N[C@@H](CCCNC(=N)N)C(=O)N1CCC[C@H]1C(=O)N[C@@H](CCCCN)C(=O)N[C@@H](CC(C)C)C(=O)N[C@@H](CCCCN)C(=O)N[C@@H](Cc1c[nH]c2ccccc12)C(=O)N[C@@H](CC(=O)O)C(=O)N[C@@H](CC(N)=O)C(=O)N[C@@H](CCC(N)=O)C(=O)O [Dyn A] was tested, and the “Adhesion of wild-type HEK293 cells (in words)” value (wild-type HEK293 cells) was “adhered only slightly”, the “Migration of Mac-1-deficient macrophages (in words)” value [1] was “significantly impaired” and the “Concentration at which migratory response reaches saturation” value (Mac-1-HEK293 cells; Transwell 5 μm) was 5 µM. For the same compound, the “Lowest concentration inducing migration” value (Mac-1-HEK293 cells; Transwell 5 μm) was 0.5 to 1 µM and the “Migration of Mac-1-HEK293 cells (in words)” value (Mac-1-HEK293 cells; Transwell) was “strong concentration-dependent migratory response”.
